The text below walks through data of the NIST ThermoML archive (doi:10.1021/acs.jced.8b00333).

± gives the expanded uncertainty stated by the source.

The nature of data set [1]: Molar enthalpy of transition or fusion. The conditions noted are these: Crystal; DSC.
The conditions of data set [2]: Crystal; DTA.

`CCOC(=O)[C@H](CCc1ccccc1)N[C@@H](C)C(=O)O` [((S)-1-ethoxy-1-oxo-4-phenylbutan-2-yl)-L-alanine]: the “Molar enthalpy of transition or fusion” value in data set [1] is 13.9 ± 0.335 kcal/mol. Also, the Normal melting temperature in data set [2] came out at 153.36 ± 1.1 °C.
